Consider 65 compounds from PubChem BioAssay AID463229 (Broad Institute, 2010).

Usually AC50 stands for the concentration at which the activity in the assay is half-maximal.

This assay concerns INS-1E rat beta cells, no cytokines, CellTiter-Glo ATP, 48 h. The assay is described as follows: ATP level change in INS-1E without cytokines, dose response, counter-screen for beta-cell apoptosis protection project, INS-1E rat cells, ATP luminescence, cherry pick (AID 463229). (Counterscreens check selectivity or assay interference.)
As for `N=c1c2c(n(Cc3ccc(Cl)c(Cl)c3)c3c1CCC3)CCCC2`, the AC50 is 3.57 µM. Turning to `CCN1CCN(CCCNC(=O)c2ccc3c(c2)NC(=O)/C(=C\c2cccc(C)c2)S3)CC1`, the AC50 was 12.3 µM. The same measure for `COc1ccc(C(=O)N/N=C/c2cc(Br)ccc2O)cc1OC`: 7.2 µM; for `CCN(CC)c1ccc(/C=N/NC(=O)c2cccc(S(=O)(=O)Nc3ccccc3OC)c2)c(O)c1`: 1.62 µM; for `O=[N+]([O-])c1cc(/C=N/Nc2nc3ccccc3[nH]2)c(O)cc1O`: 2.01 µM. Take `C=C1C(O)[C@@H]2O[C@]3(CC[C@H](/C=C/C(C)[C@@H]4CC(C)=CC5(O[C@H](C[C@@](C)(O)C(=O)O)CCC5O)O4)O3)CC[C@H]2O[C@@H]1C(O)CC(C)[C@H]1OC2(CCCCO2)CCC1C` (stereo not given in full): the AC50 is less than 0.195 µM.

As to `Nc1nonc1-n1nnc(C(=O)N/N=C/c2cc(Br)ccc2O)c1CSC1=NCCS1`, the AC50 is 3.58 µM.

As to `CCCCCCCCNc1ncnc2ccccc12`, the AC50 was 0.384 µM. The value for `CCCCCCc1cc2cc(-c3nnc(-c4ccccc4)o3)c(=O)oc2cc1O` was 7.25 µM; that for `CC(C)C(=O)NC(c1ccccc1)c1cc([N+](=O)[O-])c2cccnc2c1O` (stereo not given) was 10.6 µM; that for `C1CCC(C(CC2CCCCN2)C2CCCCC2)CC1` (stereo not given) was 9.74 µM.

Consider `C#CCOCCOCCOCCNc1nc(N2CCN(C(=O)CCCCCCCCCCNC(=O)[C@H]([C@@H](C)CC)n3cc(CCCCN=C(N)N)nn3)CC2)nc(N2CCN(C(=O)CCCCCCCCCCNC(=O)[C@H](CO)n3cc(CCCCCN)nn3)CC2)n1`, for which the AC50 is 7.67 µM. The value for `Cc1ccc2nc(N(CCCN(C)C)C(=O)c3ccc(S(=O)(=O)N4CCc5ccccc5C4)cc3)sc2c1` was 6.99 µM. The value for `O=[N+]([O-])c1ccc(NC(=S)NCCc2ccc(Cl)cc2)cc1` was 8.12 µM; that for `CN(C1=C(NC(=O)c2ccc(Cl)cc2)C(=O)c2ccccc2C1=O)c1ccccc1` was 13 µM. The same measure for `O=C(/C=C/c1cccc([N+](=O)[O-])c1)c1ccc([N+](=O)[O-])o1`: 3.95 µM. For the compound `O=C(N/N=C\c1c(O)ccc2ccccc12)c1ccc(Cn2cccn2)o1`, the AC50 is 4.39 µM. As for `CC1=NN(c2nc3ccccc3[nH]2)C(=O)C1Cc1ccccc1` (stereo not given), the AC50 is 2.1 µM. The value for `COc1ccc(/C=C/c2nc3ccccc3n2C)cc1` was 3.13 µM; that for `CCN1c2ccccc2N(C)C1(C)c1ccccc1` (stereo not given) was 4.56 µM; that for `Cc1ccc(C)c(S(=O)(=O)N2CCN(c3ncnc4sccc34)CC2)c1` was 4.53 µM. The same measure for `COc1ccc(N=C2S/C(=C\c3ccc(N4CCOCC4)o3)C(=O)N2CCc2c[nH]c3ccccc23)cc1`: 13.8 µM. The same measure for `O=S(=O)(C/C(=C/CO)S(=O)(=O)c1ccccc1)c1ccccc1`: 10.9 µM; for `COc1ccc2[nH]c(C(=O)N/N=C/c3ccc(O)cc3O)cc2c1`: 2.08 µM; for `CN1/C(=C\C(=O)CN2C(=O)NC3(CCCCCC3)C2=O)C(C)(C)c2ccccc21`: 7.99 µM. `O=C(c1cc2sccc2n1Cc1ccccc1)N1CCN(c2nc3ccccc3s2)CC1`: the AC50 is 5.51 µM.

As for `COc1ccc(Nc2nc(N3CCCC3)c3ccccc3n2)cc1`, the AC50 is 9.85 µM. The same measure for `O=C(Nc1ccc(OCC(=O)N2CCC(Cc3ccccc3)CC2)cc1)c1ccco1`: 7 µM.

On to `CCc1ccc(-n2cc(-c3ccc(F)cc3)[n+]3c2SCCC3)cc1`, for which the AC50 is 0.413 µM.

Turning to `Cc1ccc(S(=O)(=O)N2CCOCC2)cc1C(=O)Nc1nc(-c2ccccn2)cs1`, the AC50 was 7.77 µM. The same measure for `O=[N+]([O-])c1ccc(N2CCN(C(=S)NCc3ccc(Cl)cc3)CC2)cc1`: 10.3 µM; for `Cc1[nH]n(-c2ccccc2)c(=O)c1/C=N/NC(=O)COc1ccccc1[N+](=O)[O-]`: 8.45 µM; for `CCN(CC)CCNC(=O)c1ccc(NC(=O)c2cn(-c3ccccc3)nc2-c2cccs2)cc1`: 15.7 µM. The value for `CCCCCCCCCCCCCCCC[N+](C)(C)CCN(Cc1ccc(OC)cc1)c1ncccn1` was 4.23 µM; that for `Nc1ccc(Br)cc1-c1nc2ccccc2[nH]c1=O` was 1.32 µM; that for `Cc1cccc2cc(-c3ccccc3)c(-c3ccccc3)c[n+]12` was 4.21 µM.

Take `COc1ccc(C)cc1Nc1n[n+](-c2ccccc2)c(-c2c(OC)ccc3ccccc23)s1`: the AC50 is 6.88 µM. With `CCOc1ccc(Nc2nc(Cc3nnc(SCC(=O)c4ccc(C)c(C)c4)o3)cs2)cc1`, the AC50 was 10.6 µM. The value for `O=C(NNC(=O)c1cccnc1SCc1cccc([N+](=O)[O-])c1)c1ccc(F)cc1` was 15.8 µM; that for `Cc1sc2ncnc(NCC(O)c3ccccc3)c2c1C` (stereo not given) was 10.5 µM. The value for `COc1ccccc1NC(=O)c1cc2cc(Br)ccc2cc1O` was 7.8 µM; that for `CCN(CC)c1ccc(/C=N/NC(=O)CCC(=O)NCc2ccccc2)c(O)c1` was 7.22 µM. `Cc1ccc([N+](=O)[O-])c(OCCN2CCCCCC2)c1`: the AC50 was 7.14 µM. The same measure for `C=C(C)C(=O)OCC(O)COc1ccc(C(C)(C)c2ccc(OCC(O)COC(=O)C(=C)C)cc2)cc1` (stereo not given): 19.2 µM; for `[O-][n+]1onc2c1CCc1c-2nn(-c2ccccc2Cl)[n+]1[O-]`: 7.37 µM; for `CCCC(=O)NC(c1ccc(OC)cc1)c1ccc2cccnc2c1O` (stereo not given): 2.4 µM.

Regarding `CN(Cc1cccnc1)C(=O)c1cc(COc2ccc3ncccc3c2)on1`, the AC50 was 9.3 µM.

With `Nc1ccc2c(c1)C(=O)C(=O)c1ccccc1-2`, the AC50 is 1.2 µM. `O=C(N/N=C/c1c(O)ccc2ccccc12)c1ccc(Br)o1`: the AC50 is 4.83 µM. In the case of `Cc1ccc(NC(=O)Cn2c(O)c(N=NC(=O)c3cc4ccccc4cc3O)c3ccccc32)cc1`, the AC50 is 8.15 µM. The value for `Cc1ccc2[nH]c(=O)c(C3C(C#N)=C(N)Oc4c3ccc3cccnc43)cc2c1` (stereo not given) was 4.74 µM; that for `CCCCCCCCn1c2c(c(=N)c3c1CCC3)CCCC2` was less than 0.195 µM; that for `CCCC(=O)NC(c1ccc(N(C)C)cc1)c1ccc2cccnc2c1O` (stereo not given) was 2.08 µM. The value for `Oc1ccc(COCc2ccccc2)c2cccnc12` was 4.28 µM; that for `CN1CCN(c2ccc(CNS(=O)(=O)Cc3cccc(C(F)(F)F)c3)cc2)CC1` was 8.93 µM; that for `On1onc2c3cc(-c4ccccc4)nc3ccc21` was 5.23 µM.

For the compound `N#Cc1ccc(NC(=O)Nc2ccc(Cl)cc2)cc1`, the AC50 is 6.57 µM. The value for `Cc1cccc(-n2c(C)cc(/C=N/n3cnnc3)c2C)c1` was 14.5 µM; that for `COCCC1CCCCN1C(=O)c1cc(COc2ccc(-n3cncn3)cc2)on1` (stereo not given) was 6.35 µM; that for `Cc1cccc(Oc2cc(NC(=O)c3ccccc3)cc([N+](=O)[O-])c2)c1` was 7.84 µM. The same measure for `Cc1ccc(NC(=O)c2cc(S(=O)(=O)NCCC3=CCCCC3)ccc2F)cc1F`: 6.58 µM; for `CC(C)OCCCNc1ncnc2c1[nH]c1ccccc12`: 4.34 µM.

Regarding `CC(=O)OC1COC(OC2C(O)C(C)OC(OC3C(OC4CCC5(C)C(CCC6(C)C5CC=C5C7CC(C)(C)CCC7(C(=O)O)CCC56C)C4(C)CO)OCC(O)C3O)C2O)C(O)C1OC(C)=O` (stereo not given), the AC50 is 7.09 µM. The same measure for `CCOc1ccc(CN2CCN(Cc3c[nH]c4ccccc34)CC2)cc1`: 7.75 µM. The value for `CCOC(=O)N1CCN(S(=O)(=O)c2ccc(C(=O)NNc3nc4c(C)cc(C)cc4s3)cc2)CC1` was 11.3 µM.
